Laboratory results taken from patent US20120022129A1, “Targeting of Histone Deacetylase 2, Protein Kinase CK2, and Nuclear Factor NRF2 For Treatment of Inflammatory Diseases” (priority 2008, published 2012).
Where a SMILES comes first, the peptide text is derived from it. [ ]: non-standard residue; d: D form. Nle = CCCC[C@H](N)C(=O)O

Columns and labels:
HDAC2 [1] = experiment: HDAC2 levels by western blot in MonoMac6 cells; settings: then CSE 2.5% 6 h
Protocol: The human monocyte-macrophage cell line (MonoMac6) was established from the peripheral blood of a subject with monoblastic leukemia (21). […]
MonoMac6 cells were washed with Ca^2+/Mg^2+ free PBS and seeded at a density of 5.0×10^6 cells in 100 mm culture plates in a total volume of 7 ml RPMI-1640 containing 0.5% FBS. […] Cells were treated with CSE (2.5%), washed in ice-cold sterile Ca^2+/Mg^2+ free PBS and lysed in RIPA buffer (50 mM Tris HCl pH 7.4, 150 mM NaCl, 0.25 mM EDTA, 5 mM NaF, 0.1% sodium deoxycholate, 1% Triton X-100); cell extracts and cell culture media were stored at −80° C. until analyzed.
Cells were lysed in 100 μl RIPA buffer supplemented with protease inhibitor cocktail (leupeptin, aprotinin, pepstatin and PMSF) and stored at −80° C. […] After extensive washing, primary antibodies were detected with secondary antibodies linked to horseradish peroxidase (Dako, Carpinteria, Calif.) and bound complex detected with enhanced chemiluminescence (PerkinElmer, Waltham, Mass.).

HDAC2 [2] = experiment: Ubiquitination of immunoprecipitated HDAC2 in MonoMac6 cells; type: cell-based, human
Protocol: FIG. 4: CSE-mediated degradation of HDAC2 is ubiquitin-proteasome dependent in MonoMac6 cells. […] Immunoprecipitated HDAC2 was assayed for bound ubiquitin using specific ubiquitin anti-sera. […] (D) The relative density of ubiquitin expression in MonoMac6 cells after proteasome inhibition of CSE-induced HDAC2 degradation normalized to immunoprecipitated HDAC2.
(§1) Cell lysate controls were used.
(§2) To further confirm this hypothesis, it was determined if exposure to okadaic acid would induce ubiquitination and degradation of HDAC2. […] Immunoprecipitated HDAC2 was then assayed for the presence of ubiquitinated residues using specific ubiquitin anti-sera by western blot. […] To further confirm the hypothesis, MonoMac6 cells were treated with okadaic acid (1 μM) for 0.5 h, cells were fixed in 4% paraformaldehyde and immunostained with anti-HDAC2 antibodies to determine HDAC2 localization.

HDAC2 [3] = experiment: Serine phosphorylation of immunoprecipitated HDAC2 in H292 cells; type: cell-based, human
Protocol: FIG. 6: CSE induced CK2-dependent HDAC2 phosphorylation in bronchial epithelial and small airway epithelial cells. [A (i)] H292 cells were treated with CSE (2.5%) for 0.5, 1, 2 and 4 h. Immunoprecipitated HDAC2 was analyzed for phosphorylation of serine residues using specific phospho-serine antibodies by SDS polyacrylamide gel. CSE induced significant cyclical phosphorylation of HDAC2 on serine residues at 0.5, 1 and 4 h. [A (ii)] Relative density of phosphor-serine expression normalized to immunoprecipitated HDAC2. [B (i)] […] Immunoprecipitated HDAC2 from whole cell lysates was probed for phosphorylation of serine residues, CSE induced a dose-dependent increase in HDAC2 serine phosphorylation. [B (ii)] Relative density of phospho-serine expression normalized to immunoprecipitated HDAC2. (C) H292 cells were treated with or without specific CK2 inhibitor, TBB. for 1 h, cells were washed with sterile 1×PBS and then treated with freshly prepared CSE (2.5%) for 0.5 h, Immunoprecipitated HDAC2 was assayed for phosphorylation on serine residues. […] (D) Relative density of phosphor-serine expression normalized to immunoprecipitated HDAC2.
FIG. 14: Loss of Serine Sites S^394, S^422, S^424 Abrogates Cigarette Smoke Extract (CSE)-Induced Phosphatase-Independent HDAC2 Phosphorylation. A) Bronchial epithelial H292 cells were transfected with plasmid vector or flag-tagged WT HDAC2 (1-488) for 24 h using lipofectamine 2000 and then treated with or without 2.5% CSE for 0.5 h or B) 50 μM. acrolein for 1 h. Flag-tagged proteins were immunoprecipitated overnight and serine phosphorylation detected by western blots using phospho-serine antibodies. C) Flag-tagged WT HDAC2 was immunoprecipitated from whole cell lysates of H292 cells treated with 2.5% CSE for 0.5 h. Immunoprecipates were then washed and treated with 400 U of λ-phosphatase or buffer alone for 1 h at 30° C. Phosphorylation of serine sites were detected by western blots using anti-serine antibodies. D) H292 cells were transfected with plasmid vector, flag-tagged WT HDAC2 (1-488) or S394A, S394/411/422/424A and 1-400 aa HDAC2 mutants for 24 h with lipofectamine 2000. Cells were then treated with 2.5% CSE for 0.5 h. Serine phosphorylation of immunoprecipitated flag proteins was determined by western blot. E) Phosphatase activity was determined using non-radioactive assay system (Promega). H292 cells were treated with or without 2.5% CSE for 0.5, 2 and 6 h with serine/threonine […] (okadaic acid) used as a positive control. 5 μg protein was incubated with PP2A specific-peptide substrate RRA(pT)VA and reaction buffer for 15 minutes in a 96-well plate. Molybdate dye/additive mixture was added to stop the reaction and color allowed to develop for 15 minutes. Optical density of samples was determined using a microplate reader with a 630 nm filter.
FIG. 18: Protein Kinase CK2 Inhibitors Blocks CSE-Induced HDAC2 Phosphorylation. A) Bronchial epithelial H292 cells transfected with a flag-tagged WT HDAC2 plasmid were treated with 2.5% CSE for 0.5 h. […] B) Relative density of phospho-serine expression normalized to immunoprecipitated HDAC2. Data expressed as mean±SEM (n=3). *** P<0.001, ### P<0.001 significant compared to control treatments.
as §1

A549 epithelial cells = experiment: Histone acetylation:deacetylation in A549 epithelial cells; type: cell-based
Description: The effect of cigarette smoke extract/condensate (CSC/CSE) and oxidative stress on histone acetylation:deacetylation and pro-inflammatory gene transcription in A549 epithelial cells has been investigated. […] CSE-mediated decrease in HDAC2 level was associated with posttranslational modifications by 4-hydroxy-2-nonenal and nitric oxide radicals generated by cigarette smoke exposure.

HDAC2 [4] = experiment: Co-immunoprecipitation of flag-tagged HDAC2 with binding partners in H292 cells; type: cell-based, human; settings: H292, flag-tagged WT HDAC2; TBB 40 μM 2 h and 90 μM 0.5 h, then CSE 2.5% 0.5 h
Protocol: FIG. 16: HDAC2 serine phosphorylation is associated with increased interaction with catalytic subunits of protein kinase CK2 in response to CSE. A) Bronchial epithelial H292 cells transfected with either a control vector (control V) or flag-tagged WT HDAC2 were treated with 2.5% CSE for 0.5 h. […] C) Bronchial epithelial H292 cells transfected with flag-tagged WT HDAC2 were treated with either 2.5% CSE for 0.5 h, 25 or 50 μM Acrolein for 1 h and 200 μM H202 for 0.5 and 2 h respectively.
A) H292 cells cultured on 8-well chamber slides were treated with 2.5% CSE for 0.5 h or 50 μM Acrolein for 1 h, washed and fixed with 4% PFA. Slides were incubated with HDAC2 and α-tubulin antibodies overnight at […]. Slides were mounted with antifade mounting solution and images analysed by an Olympus inverted microscope. B) H292 cells were transfected with plasmid vector (Ctrl V) or flag-tagged WT HDAC2 (1-488) for 24 h with lipofectamine 2000. Cells were treated with 2.5% CSE for 0.5 h and flag proteins immunoprecipitated using M2 anti-flag antibodies overnight at 4° C. HDAC1 and C) p53 interaction were determined by western blot. D) H292 cells were transfected with plasmid vector (Ctrl V), flag-tagged WT HDAC2 (1-488) or S^394/^411/^422/^424A and 1-400 amino acid HDAC2 mutants for 24 h with lipofectamine 2000. Cells were then exposed to 2.5% CSE for 0.5 h. Levels of HDAC2 interaction with HDAC1 were determined by western blotting using specific antibodies. E) H292 cells were transfected with flag-tagged WT HDAC2 (1-488) for 24 h with lipofectamine 2000. […] Levels of phospho-serine and HDAC2 interaction with SAP30, RbAp46/48, MBD3 and p65 were determined by western blotting using specific antibodies respectively. […] Levels of HDAC1 and p65 binding to immunoprecipitated flag-tagged HDAC2 was determined by western blotting. […] Deacetylase activity of immunoprecipitated HDAC2 was determined using a specific HDAC2 deacetylase activity kit. Data expressed as mean±SEM (n=3). *** P<0.001 significant compared to control treatments.

[5] = test system: LPS-induced lung inflammation; experiment: LPS-induced lung inflammation in WT mice; type: in vivo, mouse
Protocol: LPS exposure studies in mice were performed as described previously. Briefly, age-matched WT, Nrf2−/− and HDAC2−/− were exposed to aerosolized Escherichia coli LPS (1 mg/ml) for 8 minutes. Aerosolized saline-exposed mice were used as controls, and animals were sacrificed at 24 h post last exposure.
Corticosteroid treatment.
Bronchoalveolar lavage. Mice were anaesthetized by pentobarbital (Abbott Laboratories, Abbott Park, Ill.) intraperitoneal injection (100 mg/kg body weight) before sacrifice. Lungs were then removed and lavaged three times with 0.6 ml of 0.9% sodium chloride with cannula inserted into the trachea. Total lavage fluid for each mouse was combined and then centrifuged. Supernatants were frozen at −80° C. until required for further analysis and cell pellets resuspended in 1 ml of saline, and total number of cells determined using a haemocytometer. Differential counts (minimum 500 per slide) were determined using Diff-Quik (Dade Behring, Newark, Del.)-stained cytospin slides.
Cytokine Analysis. Monocyte chemotactic protein 1 (MCP-1) levels were measured from mouse lung soluble protein by enzyme-linked immunosorbent assay (ELISA) with the duo-antibody kit (R & D Systems). Results were normalized to protein concentration per sample.

[6] = test system: LPS-induced lung inflammation; experiment: LPS-induced lung inflammation in HDAC2−/− mice; type: in vivo, mouse
Description: Mice. The Nrf2 knockout (KO) mouse strain (Nrf2−/− on C57BL/6J background) used in this study is described earlier and was generously supplied by Prof. Masayuki Yamamoto, University of Tsukuba, Japan via the RIKEN BioResource Center, Tsukuba, Japan. HDAC2 mutant (HDAC2−/− on C57BL/6J background) mice were kindly provided by Dr. J. A. Epstein (University of Pennsylvania School of Medicine, Philadelphia, Pa.). […] Wild-type (WT) C57BL/6J mice were purchased from Jackson laboratories (Bar Harbor, Me.). All animal protocols for this study were approved by the University Committee on Animal Research of the University of Rochester.
LPS exposure studies in mice were performed as described previously. Briefly, age-matched WT, Nrf2−/− and HDAC2−/− were exposed to aerosolized Escherichia coli LPS (1 mg/ml) for 8 minutes. […]
Bronchoalveolar lavage. […] Supernatants were frozen at −80° C. until required for further analysis and cell pellets resuspended in 1 ml of saline, and total number of cells determined using a haemocytometer. Differential counts (minimum 500 per slide) were determined using Diff-Quik (Dade Behring, Newark, Del.)-stained cytospin slides.
Cytokine Analysis. Monocyte chemotactic protein 1 (MCP-1) levels were measured from mouse lung soluble protein by enzyme-linked immunosorbent assay (ELISA) with the duo-antibody kit (R & D Systems). […]

HDAC2 [7] = experiment: Phosphorylation of immunoprecipitated HDAC2 in MonoMac6 cells; settings: okadaic acid 1 μM, 0.5 and 1 h
Protocol: MonoMac6 cells were washed with Ca^2+/Mg^2+ free PBS and seeded at a density of 5.0×10^6 cells in 100 mm culture plates in a total volume of 7 ml RPMI-1640 containing 0.5% FBS. Cells were treated with CSE (2.5%) or Okadaic acid (40 nM and 1 μM) (Alexis Biochemicals, San Diego, Calif.). For treatments with protein casein kinase CK2 inhibitor, 4,5,6,7-tetrabromobenzotriazole (TBB), cells were pretreated with 20 μM TBB (Sigma, St. Louis, Mo.) for 1 or 2 h, cells were then washed with sterile PBS before treatment with CSE. […] Cells were treated with CSE (2.5%), washed in ice-cold sterile Ca^2+/Mg^2+ free PBS and lysed in RIPA buffer (50 mM Tris HCl pH 7.4, 150 mM NaCl, 0.25 mM EDTA, 5 mM NaF, 0.1% sodium deoxycholate, 1% Triton X-100); cell extracts and cell culture media were stored at −80° C. until analyzed.
Cell lysate (200 μg protein) was incubated for overnight with anti-HDAC2 (2 μg) at 4° C., then immunoprecipitated with Protein G-agarose beads for 1 h with constant agitation. Beads were washed at least four times with RIPA buffer, boiled for 10 minutes in 35 μl 2× sample buffer and resolved on a 7.5% SDS-polyacrylamide gel. Cell lysate controls were used. Blots were probed with p-serine (1:1000) and p-threonine (1:1000) (Cell Signaling, Boston, Mass.) monoclonal antibodies for studies on the post-translational modification of HDAC2.

CK2α = CK2α phosphorylation in H292 cells; type: cell-based, human; settings: okadaic acid 100 nM and 1 μM, 0.5 and 1 h
Protocol: FIG. 15: CK2α Is Phosphorylated In Response to CSE. […] 80 μg whole cell lysates were then treated with 400 U of λ-phosphatase or buffer alone for 1 h at 30° C. The reaction was stopped by adding equal volume of 2× sample buffer and relative CK2α expression determined by western blotting. D) H292 cells were treated with 100 nM and 1 μM okadaic acid for 0.5 and 1 h. Relative CK2α expression was determined by western blotting using 20 μg whole cell lysates.

HDAC2 [8] = experiment: HDAC2 immunostaining (localization) in MonoMac6 cells; type: cell-based, human; settings: okadaic acid 1 μM, 0.5 h
Protocol: (B) Relative density of HDAC2 levels in human macrophage cells (MonoMac6 cells) at various time points of exposure to CSE.
To determine if CSE induced significant HDAC2 nucleo-cyloplasmic shuttling, MonoMac6 cells were treated with CSE (2.5%) for 4 and 6 h, cells were fixed in 4% paraformaldehyde and immunostained with anti-HDAC2 antibodies to determine HDAC2 localization. […] To determine whether shuttling occurred at earlier time points subsequent to degradation of HDAC2, MonoMac6 cells were exposed to CSE (2.5%) for 0.5 h and 1 h (data not shown).
as §2

MonoMac6 cells = type: cell-based, human
Protocol: In this study, it was determined the time-dependent effect of CSE on class I HDAC levels MonoMac6 cells were exposed to CSE (2.5%) for 0.5, 1, 2, 4 and 6 h. […] To determine whether class 1 HDAC degradation was due to decreased CSE-induced cell viability, the levels of lactate dehydrogenase (LDH) secreted into conditioned cell media was measured immediately after harvest.

SMILES: CCCC[C@@H](C=O)NC(=O)[C@H](CC(C)C)NC(=O)[C@H](CC(C)C)NC(C)=O [ALLN, N-Acetyl-Leu-Leu-Nle-CHO] (Ac-Leu-Leu-[Nle]-aldehyde)
- CSE-induced HDAC2 degradation (HDAC2 [1]; ALLN 1 μM and 5 μM pretreated 2 h): dose-dependently inhibited HDAC2 degradation
- CSE-induced HDAC2 ubiquitination (HDAC2 [2]; ALLN 1 μM pre-treatment, CSE 2.5% 6 h): further enhanced

SMILES: OO [H2O2, hydrogen peroxide]
- HDAC2 phosphorylation (HDAC2 [3]; H292, flag-tagged WT HDAC2, H2O2 200 μM, 0.5 and 2 h): inability
- histone deacetylase (HDAC) activity and HDAC2 protein levels (A549 epithelial cells; H2O2): inhibited
- histone acetylation (with histone acetyltransferase activity) (A549 epithelial cells; hydrogen peroxide 100 μM): caused an increase in histone acetylation

SMILES: Brc1c(Br)c(Br)c2[nH]nnc2c1Br [TBB]
- CSE-induced HDAC2 degradation (HDAC2 [1]; TBB 20 μM pre-treated 2 h): significantly attenuated HDAC2 degradation
- CSE-induced HDAC2 phosphorylation (HDAC2 [3]; H292, flag-tagged WT HDAC2, TBB 50 μM pre-treated 2 h, then CSE 2.5% 0.5 h): completely inhibiting CSE-induced HDAC2 phosphorylation
- CSE-induced HDAC2 phosphorylation (HDAC2 [3]; H292, TBB 20 μM pretreated 1 h, then CSE 0.5 h): completely reversed CSE-induced HDAC2 phosphorylation
- CSE-induced HDAC2 phosphorylation (HDAC2 [3]; H292, TBB 25 μM pre-treated, then CSE): inhibit HDAC2 phosphorylation but not as efficiently
- HDAC2 interaction with HDAC1 and p65 (HDAC2 [4]): blocked HDAC2 interaction with both HDAC1 and p65

SMILES: CCCC1O[C@@H]2C[C@H]3[C@@H]4CCC5=CC(=O)C=C[C@]5(C)[C@H]4[C@@H](O)C[C@]3(C)[C@]2(C(=O)CO)O1 (stereo partly drawn) [budesonide]
- attenuation of lung neutrophil influx following LPS exposure ([5]; budesonide 3 mg/kg pretreatment): ~50%
- efficacy in decreasing MCP-1 release ([5]; budesonide, LPS exposure): 49.4%
- neutrophil counts in BALF ([6]; budesonide 3 mg/kg pretreatment, LPS): no effect
- efficacy in decreasing MCP-1 release ([6]; budesonide, LPS exposure): 26.4%

SMILES: C=C1[C@@H](O)[C@@H]2O[C@]3(CC[C@H](/C=C/[C@@H](C)[C@@H]4CC(C)=C[C@@]5(O[C@H](C[C@@](C)(O)C(=O)O)CC[C@H]5O)O4)O3)CC[C@H]2O[C@@H]1[C@@H](O)C[C@H](C)[C@H]1O[C@@]2(CCCCO2)CC[C@H]1C [okadaic acid]
- phosphorylation of HDAC2 on serine residues (HDAC2 [7]): significantly induced the phosphorylation of HDAC2 on serine residues
- CK2α phosphorylation (CK2α): induced CK2α phosphorylation
- nuclear HDAC2 (immunostaining) (HDAC2 [8]): significantly induced the loss of nuclear HDAC2
- nucleo-cytoplasmic shuttling of HDAC2 (HDAC2 [8]): no nucleo-cytoplasmic shuttling of HDAC2 was observed
- ubiquitination of HDAC2 (HDAC2 [2]; okadaic acid 40 nM, 24 h): significantly induced the ubiquitination of HDAC2
- toxicity to cells (trypan blue viability, morphology) (MonoMac6 cells; okadaic acid 40 nM, 24 h): not toxic to the cells
- cell death (MonoMac6 cells; okadaic acid 1 μM, beyond 1 h): induced cell death
